Results as given in the NIST ThermoML archive (doi:10.1016/j.jct.2013.09.042).
± gives the expanded uncertainty stated by the source.

Tests used:
[1] = Crystal; for vapor or sublimation pressure: Transpiration method; for Normal melting temperature: DTA
[2] = Molar enthalpy of transition or fusion; details: Crystal; DSC

Cc1ccc(N=C2SCC3CCCN2C3)cc1Cl (centres undefined)
[1]
Details	vapor or sublimation pressure [kPa]
376.15 K	3.1e-05 ± 3.3e-06
377.15 K	3.39e-05 ± 3.6e-06
378.15 K	3.79e-05 ± 4e-06
379.15 K	4.05e-05 ± 4.3e-06
381.15 K	5.21e-05 ± 5.6e-06
382.15 K	5.74e-05 ± 6.1e-06
383.15 K	6.78e-05 ± 7.2e-06
384.15 K	7.6e-05 ± 8.1e-06
386.15 K	9.31e-05 ± 9.9e-06
388.15 K	0.0001239 ± 1.3e-05
390.15 K	0.0001553 ± 1.7e-05
392.15 K	0.0002006 ± 2.1e-05
394.15 K	0.0002521 ± 2.7e-05
396.15 K	0.0003109 ± 3.3e-05

Details	Molar enthalpy of transition or fusion [kcal/mol]	Normal melting temperature [°C]
[1]	–	133.5 ± 0.5
[2]	5.43 ± 0.263	–

Clc1ccc(N=C2SCC3CCCN2C3)cc1Cl (centres undefined)
[1]
Details	vapor or sublimation pressure [kPa]
352.15 K	1.15e-05 ± 1.2e-06
353.15 K	1.25e-05 ± 1.4e-06
354.15 K	1.59e-05 ± 1.7e-06
355.15 K	1.82e-05 ± 2e-06
356.15 K	2.26e-05 ± 2.4e-06
357.15 K	2.27e-05 ± 2.4e-06
358.15 K	2.56e-05 ± 2.7e-06
359.15 K	2.58e-05 ± 2.8e-06
360.15 K	2.91e-05 ± 3.1e-06
361.15 K	3.49e-05 ± 3.7e-06
362.15 K	4e-05 ± 4.3e-06
363.15 K	4.4e-05 ± 4.7e-06

Details	Molar enthalpy of transition or fusion [kcal/mol]	Normal melting temperature [°C]
[1]	–	97.8 ± 0.5
[2]	5.62 ± 0.263	–

Clc1ccc(N=C2SCC3CCCN2C3)cc1 (centres undefined) [N-(4-chlorophenyl)-3-thia-1-azabicyclo[3.3.1]nonan-2-imine]
[1]
Details	vapor or sublimation pressure [kPa]
368.15 K	6.26e-05 ± 6.7e-06
369.15 K	7.04e-05 ± 7.5e-06
371.15 K	8.91e-05 ± 9.5e-06
373.15 K	0.0001094 ± 1.2e-05
374.15 K	0.0001327 ± 1.4e-05
375.15 K	0.000149 ± 1.6e-05
376.15 K	0.0001659 ± 1.8e-05
378.15 K	0.0002065 ± 2.2e-05
380.15 K	0.0002459 ± 2.6e-05
382.15 K	0.0003128 ± 3.3e-05
384.15 K	0.0003887 ± 4.1e-05
386.15 K	0.0004737 ± 5e-05
388.15 K	0.0005748 ± 6.1e-05
390.15 K	0.0007333 ± 7.8e-05
391.15 K	0.0008441 ± 9e-05

Details	Molar enthalpy of transition or fusion [kcal/mol]	Normal melting temperature [°C]
[1]	–	138.7 ± 0.5
[2]	2.82 ± 0.239	–

CCc1ccc(N=C2SCC3CCCN2C3)cc1 (centres undefined) [N-(4-ethylphenyl)-3-thia-1-azabicyclo[3.3.1]nonan-2-imine]
[1]
Details	vapor or sublimation pressure [kPa]
359.15 K	1.09e-05 ± 1.2e-06
362.15 K	1.35e-05 ± 1.5e-06
364.15 K	1.75e-05 ± 1.9e-06
366.15 K	1.98e-05 ± 2.1e-06
368.15 K	2.54e-05 ± 2.7e-06
371.15 K	2.86e-05 ± 3.1e-06
374.15 K	3.88e-05 ± 4.1e-06
376.15 K	3.03e-05 ± 1.5e-05
377.15 K	5.41e-05 ± 5.8e-06
380.15 K	6.76e-05 ± 7.2e-06
381.15 K	7.59e-05 ± 8.1e-06
382.15 K	8.41e-05 ± 9e-06
384.15 K	8.43e-05 ± 9e-06
386.15 K	0.0001059 ± 1.1e-05
389.15 K	0.0001278 ± 1.4e-05

Details	Molar enthalpy of transition or fusion [kcal/mol]	Normal melting temperature [°C]
[1]	–	121.5 ± 0.5
[2]	3.92 ± 0.263	–

Cc1cccc(N=C2SCC3CCCN2C3)c1 (centres undefined) [N-(m-tolyl)-3-thia-1-azabicyclo[3.3.1]nonan-2-imine]
[1]
Details	vapor or sublimation pressure [kPa]
353.15 K	5.65e-05 ± 6e-06
355.15 K	7.21e-05 ± 7.7e-06
357.15 K	9.52e-05 ± 1e-05
359.15 K	0.0001112 ± 1.2e-05
361.15 K	0.0001522 ± 1.6e-05
362.15 K	0.0001678 ± 1.8e-05
364.15 K	0.0002107 ± 2.2e-05
366.15 K	0.0002637 ± 2.8e-05
368.15 K	0.0003248 ± 3.4e-05
370.15 K	0.0004227 ± 4.5e-05
372.15 K	0.0005258 ± 5.6e-05
374.15 K	0.0006715 ± 7.1e-05
376.15 K	0.0008044 ± 8.5e-05

Details	Molar enthalpy of transition or fusion [kcal/mol]	Normal melting temperature [°C]
[1]	–	125.4 ± 0.5
[2]	6.33 ± 0.263	–
